Experiments:
Experiment in all cases: cells
Assay type in all cases: functional, cell-based, Homo sapiens
COLO-824 = details: Homo sapiens, COLO-824
Description: SANGER: Inhibition of human COLO-824 cell growth in a cell viability assay.

DEL = details: Homo sapiens, DEL;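 also: growth inhibition of the human DEL cell line, read out with a cell viability assay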
Description: SANGER: Inhibition of human DEL cell growth in a cell viability assay.

DSH1 = details: Homo sapiens, DSH1;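 also: growth inhibition of human DSH1 cells, measured with a cell viability readout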
Description: SANGER: Inhibition of human DSH1 cell growth in a cell viability assay.

DU-4475 = details: Homo sapiens, DU-4475
Description: SANGER: Inhibition of human DU-4475 cell growth in a cell viability assay.

EW-13 = details: Homo sapiens, EW-13;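 also: growth inhibition of EW-13 cells, read out with a cell viability assay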
Description: SANGER: Inhibition of human EW-13 cell growth in a cell viability assay.

GCIY = details: Homo sapiens, GCIY;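 also: growth inhibition of the human GCIY cell line, read out by a cell viability assay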
Description: SANGER: Inhibition of human GCIY cell growth in a cell viability assay.

GI-1 = details: Homo sapiens, GI-1;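 also: growth inhibition of human GI-1 cells, measured with a cell viability readout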
Description: SANGER: Inhibition of human GI-1 cell growth in a cell viability assay.

GOTO = details: Homo sapiens, GOTO;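 also: growth inhibition of GOTO cells, read out by a cell viability assay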
Description: SANGER: Inhibition of human GOTO cell growth in a cell viability assay.

HC-1 = details: Homo sapiens, HC-1;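 also: growth inhibition of HC-1 cells measured by a cell viability assay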
Description: SANGER: Inhibition of human HC-1 cell growth in a cell viability assay.

HCC2218 = details: Homo sapiens, HCC2218;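 also: cell viability assay read-out, with IC50 given as the concentration that inhibits growth of the cell line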
Description: SANGER: Inhibition of human HCC2218 cell growth in a cell viability assay.

IST-MES1 = details: Homo sapiens, IST-MES1;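 also: growth inhibition of IST-MES1 cells, measured with a cell viability assay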
Description: SANGER: Inhibition of human IST-MES1 cell growth in a cell viability assay.

IST-SL1 = details: Homo sapiens, IST-SL1;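 also: growth inhibition of human IST-SL1 cells, read out with a cell viability assay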
Description: SANGER: Inhibition of human IST-SL1 cell growth in a cell viability assay.

J-RT3-T3-5 = details: Homo sapiens, J-RT3-T3-5;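 also: cell viability assay measuring growth inhibition of human J-RT3-T3-5 cells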
Description: SANGER: Inhibition of human J-RT3-T3-5 cell growth in a cell viability assay.

K5 = details: Homo sapiens, K5
Description: SANGER: Inhibition of human K5 cell growth in a cell viability assay.

KP-N-YS = details: Homo sapiens, KP-N-YS;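 also: cell viability assay measuring inhibition of cell line growth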
Description: SANGER: Inhibition of human KP-N-YS cell growth in a cell viability assay.

KU812 cell line = details: Homo sapiens, KU812;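 also: growth inhibition of KU812 cells, read out with a cell viability assay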
Description: SANGER: Inhibition of human KU812 cell growth in a cell viability assay.

L-428 = details: Homo sapiens, L-428
Description: SANGER: Inhibition of human L-428 cell growth in a cell viability assay.

LAMA-84 = details: Homo sapiens, LAMA-84;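 also: growth inhibition of LAMA-84 cells, read out with a cell viability assay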
Description: SANGER: Inhibition of human LAMA-84 cell growth in a cell viability assay.

LNCaP-Clone-FGC = details: Homo sapiens, LNCaP-Clone-FGC
Description: SANGER: Inhibition of human LNCaP-Clone-FGC cell growth in a cell viability assay.

MMAC-SF = details: Homo sapiens, MMAC-SF;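 also: growth inhibition of human MMAC-SF cells, read out with a cell viability assay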
Description: SANGER: Inhibition of human MMAC-SF cell growth in a cell viability assay.

MN-60 = details: Homo sapiens, MN-60;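 also: growth inhibition of the MN-60 cell line, determined with a cell viability assay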
Description: SANGER: Inhibition of human MN-60 cell growth in a cell viability assay.

MZ1-PC = details: Homo sapiens, MZ1-PC;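 also: cell viability assay measuring growth inhibition of human MZ1-PC cells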
Description: SANGER: Inhibition of human MZ1-PC cell growth in a cell viability assay.

NB13 = details: Homo sapiens, NB13;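 also: cell viability readout measuring growth inhibition of human NB13 cells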
Description: SANGER: Inhibition of human NB13 cell growth in a cell viability assay.

NCI-H1355 = details: Homo sapiens, NCI-H1355;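 also: growth inhibition of human NCI-H1355 cells, read out by a cell viability assay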
Description: SANGER: Inhibition of human NCI-H1355 cell growth in a cell viability assay.

NCI-H1838 = details: Homo sapiens, NCI-H1838;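 also: growth inhibition of NCI-H1838 cells, determined with a cell viability readout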
Description: SANGER: Inhibition of human NCI-H1838 cell growth in a cell viability assay.

NCI-H2126 = details: Homo sapiens, NCI-H2126;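 also: growth inhibition of the cancer cell line, determined with a cell viability readout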
Description: SANGER: Inhibition of human NCI-H2126 cell growth in a cell viability assay.

NCI-H226 = details: Homo sapiens, NCI-H226;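 also: cell viability read-out used to gauge growth inhibition of the cells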
Description: SANGER: Inhibition of human NCI-H226 cell growth in a cell viability assay.

NCI-H510A = details: Homo sapiens, NCI-H510A;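 also: growth inhibition of NCI-H510A cells, read out with a cell viability assay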
Description: SANGER: Inhibition of human NCI-H510A cell growth in a cell viability assay.

NCI-H82 = details: Homo sapiens, NCI-H82;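 also: growth inhibition of NCI-H82 cells, measured with a cell viability readout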
Description: SANGER: Inhibition of human NCI-H82 cell growth in a cell viability assay.

SNU1 = details: Homo sapiens, SNU1;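 also: growth inhibition of human NCI-SNU-1 cells, measured with a cell viability assay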
Description: SANGER: Inhibition of human NCI-SNU-1 cell growth in a cell viability assay.

NH-12 = details: Homo sapiens, NH-12;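 also: growth inhibition of NH-12 cells, read out with a cell viability assay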
Description: SANGER: Inhibition of human NH-12 cell growth in a cell viability assay.

NKM-1 = details: Homo sapiens, NKM-1;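 also: growth inhibition of NKM-1 cells, read out with a cell viability assay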
Description: SANGER: Inhibition of human NKM-1 cell growth in a cell viability assay.

OMC-1 = details: Homo sapiens, OMC-1;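 also: growth inhibition of the OMC-1 cell line, measured by a cell viability assay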
Description: SANGER: Inhibition of human OMC-1 cell growth in a cell viability assay.

ONS-76 = details: Homo sapiens, ONS-76;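 also: growth inhibition of human ONS-76 cells, read out with a cell viability assay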
Description: SANGER: Inhibition of human ONS-76 cell growth in a cell viability assay.

OVCAR-4 = details: Homo sapiens, OVCAR-4;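 also: growth inhibition of human OVCAR-4 cells, measured with a cell viability assay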
Description: SANGER: Inhibition of human OVCAR-4 cell growth in a cell viability assay.

QIMR-WIL = details: Homo sapiens, QIMR-WIL;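 also: growth inhibition of QIMR-WIL cells, read out with a cell viability assay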
Description: SANGER: Inhibition of human QIMR-WIL cell growth in a cell viability assay.

RCC10RGB = details: Homo sapiens, RCC10RGB;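 also: growth inhibition of human RCC10RGB cells, read out by a cell viability assay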
Description: SANGER: Inhibition of human RCC10RGB cell growth in a cell viability assay.

RPMI-8866 = details: Homo sapiens, RPMI-8866
Description: SANGER: Inhibition of human RPMI-8866 cell growth in a cell viability assay.

SF-268 = details: Homo sapiens, SF-268;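 also: growth inhibition of SF-268 cells determined with a cell viability assay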
Description: SANGER: Inhibition of human SF268 cell growth in a cell viability assay.

SK-LMS-1 = details: Homo sapiens, SK-LMS-1;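 also: growth inhibition of human SK-LMS-1 cells, read out with a cell viability assay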
Description: SANGER: Inhibition of human SK-LMS-1 cell growth in a cell viability assay.

SNB-75 = details: Homo sapiens, SNB-75;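 also: cell viability assay measuring growth inhibition of human SNB-75 cells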
Description: SANGER: Inhibition of human SNB75 cell growth in a cell viability assay.

BB49-HNC = details: Homo sapiens, BB49-HNC;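 also: cell viability assay read-out, reported as inhibition of BB49-HNC cell growth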
Description: SANGER: Inhibition of human BB49-HNC cell growth in a cell viability assay.

Becker = details: Homo sapiens, Becker;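 also: growth inhibition of Becker cells, read out with a cell viability assay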
Description: SANGER: Inhibition of human Becker cell growth in a cell viability assay.

C2BBe1 = details: Homo sapiens, C2BBe1;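 also: growth inhibition of C2BBe1 cells, read out through a viability assay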
Description: SANGER: Inhibition of human C2BBe1 cell growth in a cell viability assay.

TE-6 = details: Homo sapiens, TE-6;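 also: growth inhibition of TE-6 cells, read out with a cell viability assay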
Description: SANGER: Inhibition of human TE-6 cell growth in a cell viability assay.

no-10 = details: Homo sapiens;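 also: growth inhibition of no-10 cells, read out with a cell viability assay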
Description: SANGER: Inhibition of human no-10 cell growth in a cell viability assay.

CCRF-CEM = details: Homo sapiens, CCRF-CEM;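 also: inhibition of CCRF-CEM cell growth, measured by a cell viability assay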
Description: SANGER: Inhibition of human CCRF-CEM cell growth in a cell viability assay.

KLE = details: Homo sapiens, KLE;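 also: growth inhibition of human KLE cells, read out with a cell viability assay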
Description: SANGER: Inhibition of human KLE cell growth in a cell viability assay.

TGBC24TKB = details: Homo sapiens, TGBC24TKB;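 also: growth inhibition of human TGBC24TKB cells, read out with a cell viability assay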
Description: SANGER: Inhibition of human TGBC24TKB cell growth in a cell viability assay.

COc1cc(N2CCN(C)CC2)ccc1Nc1ncc2c(n1)N(C)c1ccccc1C(=O)N2C
IC50 (COLO-824): > 8 µM
IC50 (DEL): > 8 µM
IC50 (DSH1): > 8 µM
IC50 (DU-4475): > 8 µM
IC50 (EW-13): > 8 µM
IC50 (GCIY): > 8 µM
IC50 (GI-1): > 8 µM
IC50 (GOTO): > 8 µM
IC50 (HC-1): > 8 µM
IC50 (HCC2218): > 8 µM
IC50 (IST-MES1): > 8 µM
IC50 (IST-SL1): > 8 µM
IC50 (J-RT3-T3-5): > 8 µM
IC50 (K5): > 8 µM
IC50 (KP-N-YS): > 8 µM
IC50 (KU812 cell line): 7.43 µM
IC50 (L-428): > 8 µM
IC50 (LAMA-84): > 8 µM
IC50 (LNCaP-Clone-FGC): > 8 µM
IC50 (MMAC-SF): > 8 µM
IC50 (MN-60): > 8 µM
IC50 (MZ1-PC): > 8 µM
IC50 (NB13): > 8 µM
IC50 (NCI-H1355): > 8 µM
IC50 (NCI-H1838): > 8 µM
IC50 (NCI-H2126): > 8 µM
IC50 (NCI-H226): > 8 µM
IC50 (NCI-H510A): > 8 µM
IC50 (NCI-H82): > 8 µM
IC50 (SNU1): > 8 µM
IC50 (NH-12): > 8 µM
IC50 (NKM-1): > 8 µM
IC50 (OMC-1): > 8 µM
IC50 (ONS-76): > 8 µM
IC50 (OVCAR-4): > 8 µM
IC50 (QIMR-WIL): 6.32 µM
IC50 (RCC10RGB): > 8 µM
IC50 (RPMI-8866): > 8 µM
IC50 (SF-268): 7.55 µM
IC50 (SK-LMS-1): > 8 µM
IC50 (SNB-75): 7.34 µM
IC50 (BB49-HNC): > 8 µM
IC50 (Becker): 7.46 µM
IC50 (C2BBe1): > 8 µM
IC50 (TE-6): > 8 µM
IC50 (no-10): > 8 µM
IC50 (CCRF-CEM): > 8 µM

CC(C)CCN1c2nc(Nc3cc(F)c(O)c(F)c3)ncc2N(C)C(=O)C1C (stereo not drawn)
IC50 (COLO-824): 4.9 µM
IC50 (DEL): > 5 µM
IC50 (DSH1): > 5 µM
IC50 (DU-4475): 0.504 µM
IC50 (EW-13): > 5 µM
IC50 (GCIY): 4.71 µM
IC50 (GI-1): 3.15 µM
IC50 (GOTO): 3.28 µM
IC50 (HCC2218): > 5 µM
IC50 (IST-MES1): > 5 µM
IC50 (IST-SL1): 0.846 µM
IC50 (J-RT3-T3-5): > 5 µM
IC50 (K5): > 5 µM
IC50 (KLE): > 5 µM
IC50 (KP-N-YS): 0.682 µM
IC50 (KU812 cell line): 0.626 µM
IC50 (L-428): > 5 µM
IC50 (LAMA-84): 1.13 µM
IC50 (LNCaP-Clone-FGC): 3.7 µM
IC50 (MMAC-SF): > 5 µM
IC50 (MN-60): 2.45 µM
IC50 (MZ1-PC): 3.83 µM
IC50 (NB13): > 5 µM
IC50 (NCI-H1355): > 5 µM
IC50 (NCI-H1838): > 5 µM
IC50 (NCI-H2126): > 5 µM
IC50 (NCI-H226): > 5 µM
IC50 (NCI-H82): > 5 µM
IC50 (SNU1): > 5 µM
IC50 (NH-12): 3.11 µM
IC50 (NKM-1): > 5 µM
IC50 (OMC-1): > 5 µM
IC50 (ONS-76): > 5 µM
IC50 (OVCAR-4): > 5 µM
IC50 (QIMR-WIL): 2.08 µM
IC50 (RCC10RGB): > 5 µM
IC50 (RPMI-8866): > 5 µM
IC50 (SF-268): 2.87 µM
IC50 (SK-LMS-1): > 5 µM
IC50 (SNB-75): > 5 µM
IC50 (BB49-HNC): > 5 µM
IC50 (Becker): 2.66 µM
IC50 (C2BBe1): > 5 µM
IC50 (TE-6): > 5 µM
IC50 (TGBC24TKB): > 5 µM
IC50 (no-10): > 5 µM
IC50 (CCRF-CEM): > 5 µM

C#Cc1cccc(Nc2ncnc3cc(OCCOC)c(OCCOC)cc23)c1 [ERLOTINIB]
IC50 (COLO-824): > 2 µM
IC50 (DEL): > 2 µM
IC50 (DSH1): > 2 µM
IC50 (DU-4475): > 2 µM
IC50 (EW-13): > 2 µM
IC50 (GCIY): > 2 µM
IC50 (GI-1): > 2 µM
IC50 (GOTO): > 2 µM
IC50 (HC-1): > 2 µM
IC50 (HCC2218): > 2 µM
IC50 (IST-MES1): > 2 µM
IC50 (IST-SL1): > 2 µM
IC50 (J-RT3-T3-5): > 2 µM
IC50 (K5): > 2 µM
IC50 (KP-N-YS): > 2 µM
IC50 (KU812 cell line): > 2 µM
IC50 (L-428): > 2 µM
IC50 (LAMA-84): > 2 µM
IC50 (LNCaP-Clone-FGC): > 2 µM
IC50 (MMAC-SF): > 2 µM
IC50 (MN-60): > 2 µM
IC50 (MZ1-PC): > 2 µM
IC50 (NB13): > 2 µM
IC50 (NCI-H1355): > 2 µM
IC50 (NCI-H1838): > 2 µM
IC50 (NCI-H2126): > 2 µM
IC50 (NCI-H226): > 2 µM
IC50 (NCI-H510A): > 2 µM
IC50 (NCI-H82): > 2 µM
IC50 (SNU1): > 2 µM
IC50 (NH-12): > 2 µM
IC50 (NKM-1): > 2 µM
IC50 (OMC-1): > 2 µM
IC50 (ONS-76): > 2 µM
IC50 (OVCAR-4): > 2 µM
IC50 (QIMR-WIL): > 2 µM
IC50 (RCC10RGB): > 2 µM
IC50 (RPMI-8866): > 2 µM
IC50 (SF-268): > 2 µM
IC50 (SK-LMS-1): > 2 µM
IC50 (SNB-75): > 2 µM
IC50 (BB49-HNC): > 2 µM
IC50 (Becker): > 2 µM
IC50 (C2BBe1): > 2 µM
IC50 (TE-6): > 2 µM
IC50 (no-10): > 2 µM
IC50 (CCRF-CEM): > 2 µM

COc1cc2ncn(-c3cc(OCc4ccccc4S(C)(=O)=O)c(C#N)s3)c2cc1OC [GSK-319347A]
IC50 (COLO-824): > 5 µM
IC50 (DEL): > 5 µM
IC50 (DSH1): > 5 µM
IC50 (DU-4475): > 5 µM
IC50 (EW-13): > 5 µM
IC50 (GCIY): > 5 µM
IC50 (GI-1): > 5 µM
IC50 (GOTO): > 5 µM
IC50 (HC-1): > 5 µM
IC50 (HCC2218): > 5 µM
IC50 (IST-MES1): > 5 µM
IC50 (IST-SL1): > 5 µM
IC50 (J-RT3-T3-5): > 5 µM
IC50 (K5): > 5 µM
IC50 (KP-N-YS): > 5 µM
IC50 (KU812 cell line): > 5 µM
IC50 (L-428): > 5 µM
IC50 (LAMA-84): > 5 µM
IC50 (LNCaP-Clone-FGC): > 5 µM
IC50 (MMAC-SF): > 5 µM
IC50 (MN-60): > 5 µM
IC50 (MZ1-PC): > 5 µM
IC50 (NB13): > 5 µM
IC50 (NCI-H1355): > 5 µM
IC50 (NCI-H1838): > 5 µM
IC50 (NCI-H2126): > 5 µM
IC50 (NCI-H226): > 5 µM
IC50 (NCI-H510A): > 5 µM
IC50 (NCI-H82): > 5 µM
IC50 (SNU1): > 5 µM
IC50 (NH-12): > 5 µM
IC50 (NKM-1): > 5 µM
IC50 (OMC-1): > 5 µM
IC50 (ONS-76): > 5 µM
IC50 (OVCAR-4): > 5 µM
IC50 (QIMR-WIL): > 5 µM
IC50 (RCC10RGB): > 5 µM
IC50 (RPMI-8866): > 5 µM
IC50 (SF-268): > 5 µM
IC50 (SK-LMS-1): > 5 µM
IC50 (SNB-75): > 5 µM
IC50 (BB49-HNC): > 5 µM
IC50 (Becker): > 5 µM
IC50 (C2BBe1): > 5 µM
IC50 (TE-6): > 5 µM
IC50 (no-10): > 5 µM
IC50 (CCRF-CEM): > 5 µM

CN(C)C(=N)NC(=N)N [METFORMIN]
IC50 (COLO-824): > 20000 µM
IC50 (DSH1): > 20000 µM
IC50 (DU-4475): 3840 µM
IC50 (GCIY): > 20000 µM
IC50 (GI-1): > 20000 µM
IC50 (GOTO): > 20000 µM
IC50 (HC-1): 4200 µM
IC50 (HCC2218): 701 µM
IC50 (IST-MES1): > 20000 µM
IC50 (J-RT3-T3-5): > 20000 µM
IC50 (K5): > 20000 µM
IC50 (KLE): > 20000 µM
IC50 (KU812 cell line): 1060 µM
IC50 (L-428): 7760 µM
IC50 (LAMA-84): > 20000 µM
IC50 (LNCaP-Clone-FGC): 5230 µM
IC50 (MN-60): > 20000 µM
IC50 (NCI-H1355): > 20000 µM
IC50 (NCI-H1838): > 20000 µM
IC50 (NCI-H2126): > 20000 µM
IC50 (NCI-H510A): 1310 µM
IC50 (SNU1): 8470 µM
IC50 (NKM-1): 9110 µM
IC50 (OMC-1): 16500 µM
IC50 (ONS-76): > 20000 µM
IC50 (OVCAR-4): 4430 µM
IC50 (QIMR-WIL): > 20000 µM
IC50 (RPMI-8866): 9030 µM
IC50 (SF-268): > 20000 µM
IC50 (SNB-75): > 20000 µM
IC50 (BB49-HNC): > 20000 µM
IC50 (Becker): > 20000 µM
IC50 (C2BBe1): 11800 µM
IC50 (TE-6): 14200 µM
IC50 (CCRF-CEM): 2720 µM

From ChEMBL document CHEMBL1201861, “Genomics of Drug Sensitity in Cancer screening data, Wellcome Trust Sanger Institute”
